From ChEMBL document CHEMBL4024732, “Discovery of a novel and potent class of anti-HIV-1 maturation inhibitors with improved virology profile against gag polymorphisms” (Bioorg Med Chem Lett, 2017)
Activity calls are given as the source filed them. No cut-off for these calls is given here.

Legend:
[1] = Inhibition of wild type HIV-1 clade B NL4-3 Gag polyprotein SP1 infected in human MT4 cells; type: cell-based; settings: Human immunodeficiency virus 1, clade B NL4-3, MT4
[2] = Inhibition of bevirimat-resistant HIV1 clade B NL4-3 CA-SP1 V370A mutant infected in human MT4 cells; type: cell-based; settings: Human immunodeficiency virus 1, clade B NL4-3, MT4
[3] = Inhibition of bevirimat-resistant HIV1 clade B NL4-3 CA-SP1 Q369H mutant infected in human MT4 cells; type: cell-based; settings: Human immunodeficiency virus 1, clade B NL4-3, MT4
[4] = Inhibition of bevirimat-resistant HIV1 clade B NL4-3 CA-SP1 T371A mutant infected in human MT4 cells; type: cell-based; settings: Human immunodeficiency virus 1, clade B NL4-3, MT4
[5] = Inhibition of bevirimat-resistant HIV-1 clade B isolate ASJM108 Gag V370A mutant infected in human PBMC after 7 days by scintillation counting method; settings: Human immunodeficiency virus 1, clade B isolate ASJM108, 168 h
[6] = Inhibition of bevirimat-resistant HIV-1 clade B isolate CC1/85 CA-SP1 V370A mutant infected in human PBMC measured after 7 days by scintillation counting method; settings: Human immunodeficiency virus 1, clade B isolate CC1/85, 168 h
[7] = Inhibition of bevirimat-resistant HIV-1 clade A isolate I-2496 V370A mutant infected in human PBMC after 7 days by scintillation counting method; settings: Human immunodeficiency virus 1, clade A isolate I-2496, 168 h
[8] = test system: Human immunodeficiency virus 1; test: Ratio of compound effect in presence of 40% human serum to compound effect in absence of serum for antiviral activity against HIV1 by cell based assay; type: functional
[9] = test system: Human immunodeficiency virus 1; test: Antiviral activity against HIV1 isolate 96THNP1538 infected in human PBMC; type: functional; settings: Human immunodeficiency virus 1, isolate 96THNP1538
[10] = test system: Human immunodeficiency virus 1; test: Antiviral activity against HIV1 isolate 91BR014 infected in human PBMC; type: functional; settings: Human immunodeficiency virus 1, isolate 91BR014
[11] = test system: Human immunodeficiency virus 1; test: Antiviral activity against HIV1 isolate 00KEKR1008 infected in human PBMC; type: functional; settings: Human immunodeficiency virus 1, isolate 00KEKR1008
[12] = test system: Human immunodeficiency virus 1; test: Antiviral activity against HIV1 isolate 96USNG031 infected in human PBMC; type: functional; settings: Human immunodeficiency virus 1, isolate 96USNG031
[13] = test system: Human immunodeficiency virus 1; test: Antiviral activity against HIV1 isolate 01ET188 infected in human PBMC; type: functional; settings: Human immunodeficiency virus 1, isolate 01ET188
[14] = Cytotoxicity against human MT4 cells; type: cell-based
[15] = test system: Human immunodeficiency virus 1; test: Inhibition of HIV1 Gag CA-SP1 cleavage infected in human PBMC at 0.0001 to 10 uM measured after 8 days post infection by Western blot analysis
[16] = test system: Human immunodeficiency virus 1; test: Inhibition of HIV1 Gag CA-SP1 cleavage infected in human PBMC at 10 uM measured after 8 days post infection by Western blot analysis

| SMILES | IC50 [1] | IC50 [2] | IC50 [3] | IC50 [4] | further results |
| --- | --- | --- | --- | --- | --- |
| CC(C)C1=C2[C@H]3CC[C@@H]4[C@@]5(C)CC[C@H](OC(=O)CC(C)(C)C(=O)O)C(C)(C)[C@@H]5CC[C@@]4(C)[C@]3(C)CC[C@@]2(C(=O)C(=O)NCC2CCCCC2)CC1=O | 11 nM | 27 nM |  |  |  |
| CC(C)C1=C2[C@H]3CC[C@@H]4[C@@]5(C)CC[C@H](OC(=O)CC(C)(C)C(=O)O)C(C)(C)[C@@H]5CC[C@@]4(C)[C@]3(C)CC[C@@]2(C(=O)C(=O)NC2CCCCC2)CC1=O | 28 nM | 329 nM |  |  |  |
| CNC(=O)C(=O)[C@@]12CC[C@]3(C)[C@H](CC[C@@H]4[C@@]5(C)CC[C@H](OC(=O)CC(C)(C)C(=O)O)C(C)(C)[C@@H]5CC[C@]43C)C1=C(C(C)C)C(=O)C2 | 1320 nM | 6670 nM |  |  |  |
| CC[C@@H](NC(=O)C(=O)[C@@]12CC[C@]3(C)[C@H](CC[C@@H]4[C@@]5(C)CC[C@H](OC(=O)CC(C)(C)C(=O)O)C(C)(C)[C@@H]5CC[C@]43C)C1=C(C(C)C)C(=O)C2)c1ccc(Cl)cc1 | 28 nM | 64 nM | 74 nM | 12 nM |  |
| CC(C)C1=C2[C@H]3CC[C@@H]4[C@@]5(C)CC[C@H](OC(=O)CC(C)(C)C(=O)O)C(C)(C)[C@@H]5CC[C@@]4(C)[C@]3(C)CC[C@@]2(C(=O)C(=O)NCc2cccc(Cl)c2)CC1=O | 16 nM | 370 nM |  |  |  |
| Cc1ccc(NC(=O)C(=O)[C@@]23CC[C@]4(C)[C@H](CC[C@@H]5[C@@]6(C)CC[C@H](OC(=O)CC(C)(C)C(=O)O)C(C)(C)[C@@H]6CC[C@]54C)C2=C(C(C)C)C(=O)C3)cc1 | 251 nM | 664 nM |  |  |  |
| CC(C)C1=C2[C@H]3CC[C@@H]4[C@@]5(C)CC[C@H](OC(=O)CC(C)(C)C(=O)O)C(C)(C)[C@@H]5CC[C@@]4(C)[C@]3(C)CC[C@@]2(C(=O)C(=O)NC(C)(C)c2ccccc2)CC1=O | 18 nM | 19 nM |  |  |  |
| CC(C)C1=C2[C@H]3CC[C@@H]4[C@@]5(C)CC[C@H](OC(=O)CC(C)(C)C(=O)O)C(C)(C)[C@@H]5CC[C@@]4(C)[C@]3(C)CC[C@@]2(C(=O)C(=O)NCc2ccc(Cl)cc2Cl)CC1=O | 37 nM | 193 nM |  |  |  |
| CC(C)C1=C2[C@H]3CC[C@@H]4[C@@]5(C)CC[C@H](OC(=O)CC(C)(C)C(=O)O)C(C)(C)[C@@H]5CC[C@@]4(C)[C@]3(C)CC[C@@]2(C(=O)C(=O)NC(C)(C)c2ccc(Cl)cc2)CC1=O | 19 nM | 17 nM | 17 nM | 11 nM |  |
| CC(C)C1=C2[C@H]3CC[C@@H]4[C@@]5(C)CC[C@H](OC(=O)CC(C)(C)C(=O)O)C(C)(C)[C@@H]5CC[C@@]4(C)[C@]3(C)CC[C@@]2(C(=O)C(=O)N2CCC2)CC1=O | 5600 nM | > 10000 nM |  |  |  |
| CC(C)C1=C2[C@H]3CC[C@@H]4[C@@]5(C)CC[C@H](OC(=O)CC(C)(C)C(=O)O)C(C)(C)[C@@H]5CC[C@@]4(C)[C@]3(C)CC[C@@]2(C(=O)C(=O)NCCCN2CCCC2)CC1=O | 1180 nM | 7500 nM |  |  |  |
| CC(C)C1=C2[C@H]3CC[C@@H]4[C@@]5(C)CC[C@H](OC(=O)CC(C)(C)C(=O)O)C(C)(C)[C@@H]5CC[C@@]4(C)[C@]3(C)CC[C@@]2(C(=O)C(=O)NC2(c3ccc(Cl)cc3)CC2)CC1=O | 17 nM | 25 nM | 23 nM | 8 nM | IC50 [5]: 51 nM; IC50 [6]: 5 nM; IC50 [7]: 14 nM; Ratio [8]: 9.7; IC50 [9]: > 60 nM; IC50 [10]: > 60 nM; IC50 [11]: > 60 nM; IC50 [12]: > 60 nM; IC50 [13]: > 60 nM; CC50 [14]: > 10 µM; inhibition [15]: Active |
| C=C(C)[C@@H]1CC[C@]2(C(=O)O)CC[C@]3(C)[C@H](CC[C@@H]4[C@@]5(C)CC[C@H](OC(=O)CC(C)(C)C(=O)O)C(C)(C)[C@@H]5CC[C@]43C)[C@@H]12 [BEVIRIMAT] | 270 nM | 6510 nM | 383 nM | 252 nM | IC50 [5]: > 10000 nM; IC50 [6]: > 10000 nM; IC50 [7]: > 4000 nM; Ratio [8]: 52; inhibition [16]: Active |
| CC(C)C1=C2[C@H]3CC[C@@H]4[C@@]5(C)CC[C@H](OC(=O)CC(C)(C)C(=O)O)C(C)(C)[C@@H]5CC[C@@]4(C)[C@]3(C)CC[C@@]2(C(=O)C(=O)N[C@H](C)c2ccc(Cl)cc2)CC1=O | 18 nM | 25 nM | 25 nM | 5 nM |  |
| CC(C)C1=C2[C@H]3CC[C@@H]4[C@@]5(C)CC[C@H](OC(=O)CC(C)(C)C(=O)O)C(C)(C)[C@@H]5CC[C@@]4(C)[C@]3(C)CC[C@@]2(C(=O)C(=O)NC2(c3ccc(Cl)cc3)CCC2)CC1=O | 29 nM | 65 nM | 48 nM | 17 nM |  |
| CC(C)C1=C2[C@H]3CC[C@@H]4[C@@]5(C)CC[C@H](OC(=O)CC(C)(C)C(=O)O)C(C)(C)[C@@H]5CC[C@@]4(C)[C@]3(C)CC[C@@]2(C(=O)C(=O)O)CC1=O | > 10000 nM |  |  |  |  |
| COc1ccc(CNC(=O)C(=O)[C@@]23CC[C@]4(C)[C@H](CC[C@@H]5[C@@]6(C)CC[C@H](OC(=O)CC(C)(C)C(=O)O)C(C)(C)[C@@H]6CC[C@]54C)C2=C(C(C)C)C(=O)C3)cc1 | 99 nM | 8000 nM |  |  |  |
| CC(C)C1=C2[C@H]3CC[C@@H]4[C@@]5(C)CC[C@H](OC(=O)CC(C)(C)C(=O)O)C(C)(C)[C@@H]5CC[C@@]4(C)[C@]3(C)CC[C@@]2(C(=O)C(=O)NCc2ccc(Cl)cc2)CC1=O | 12 nM | 87 nM |  |  |  |
| CC(C)C1=C2[C@H]3CC[C@@H]4[C@@]5(C)CC[C@H](OC(=O)CC(C)(C)C(=O)O)C(C)(C)[C@@H]5CC[C@@]4(C)[C@]3(C)CC[C@@]2(C(=O)C(=O)NCc2ccc(C(F)(F)F)cc2)CC1=O | 135 nM | 1320 nM |  |  |  |
| CC(C)C1=C2[C@H]3CC[C@@H]4[C@@]5(C)CC[C@H](OC(=O)CC(C)(C)C(=O)O)C(C)(C)[C@@H]5CC[C@@]4(C)[C@]3(C)CC[C@@]2(C(=O)C(=O)NCc2c(Cl)cccc2Cl)CC1=O | 85 nM | 1070 nM |  |  |  |
| CC(C)C1=C2[C@H]3CC[C@@H]4[C@@]5(C)CC[C@H](OC(=O)CC(C)(C)C(=O)O)C(C)(C)[C@@H]5CC[C@@]4(C)[C@]3(C)CC[C@@]2(C(=O)C(=O)Nc2ccc(F)cc2)CC1=O | 130 nM | 1800 nM |  |  |  |
| CC(C)C1=C2[C@H]3CC[C@@H]4[C@@]5(C)CC[C@H](OC(=O)CC(C)(C)C(=O)O)C(C)(C)[C@@H]5CC[C@@]4(C)[C@]3(C)CC[C@@]2(C(=O)C(=O)N[C@@H](C)c2ccc(Cl)cc2)CC1=O | 39 nM | 474 nM | 60 nM | 19 nM |  |
| CC(C)C1=C2[C@H]3CC[C@@H]4[C@@]5(C)CC[C@H](OC(=O)CC(C)(C)C(=O)O)C(C)(C)[C@@H]5CC[C@@]4(C)[C@]3(C)CC[C@@]2(C(=O)C(=O)NCc2ccc(F)cc2)CC1=O | 16 nM | 202 nM |  |  |  |
| CC(C)C1=C2[C@H]3CC[C@@H]4[C@@]5(C)CC[C@H](OC(=O)CC(C)(C)C(=O)O)C(C)(C)[C@@H]5CC[C@@]4(C)[C@]3(C)CC[C@@]2(C(=O)C(=O)NCc2ccncc2)CC1=O | 6200 nM | > 10000 nM |  |  |  |
| CC(C)C1=C2[C@H]3CC[C@@H]4[C@@]5(C)CC[C@H](OC(=O)CC(C)(C)C(=O)O)C(C)(C)[C@@H]5CC[C@@]4(C)[C@]3(C)CC[C@@]2(C(=O)C(=O)NCc2cccs2)CC1=O | 21 nM | 1620 nM |  |  |  |
| CC(C)C1=C2[C@H]3CC[C@@H]4[C@@]5(C)CC[C@H](OC(=O)CC(C)(C)C(=O)O)C(C)(C)[C@@H]5CC[C@@]4(C)[C@]3(C)CC[C@@]2(C(=O)C(=O)NCc2ccccc2Cl)CC1=O | 17 nM | 486 nM |  |  |  |
| CC(C)C1=C2[C@H]3CC[C@@H]4[C@@]5(C)CC[C@H](OC(=O)CC(C)(C)C(=O)O)C(C)(C)[C@@H]5CC[C@@]4(C)[C@]3(C)CC[C@@]2(C(=O)C(=O)NCCN2CCCC2)CC1=O | 1000 nM | > 10000 nM |  |  |  |
| CC(C)C1=C2[C@H]3CC[C@@H]4[C@@]5(C)CC[C@H](OC(=O)CC(C)(C)C(=O)O)C(C)(C)[C@@H]5CC[C@@]4(C)[C@]3(C)CC[C@@]2(C(=O)C(=O)NC2(c3ccc(Cl)cc3)CCCC2)CC1=O | 66 nM | 110 nM | 100 nM | 33 nM |  |
| CC[C@H](NC(=O)C(=O)[C@@]12CC[C@]3(C)[C@H](CC[C@@H]4[C@@]5(C)CC[C@H](OC(=O)CC(C)(C)C(=O)O)C(C)(C)[C@@H]5CC[C@]43C)C1=C(C(C)C)C(=O)C2)c1ccc(Cl)cc1 | 54 nM | 372 nM | 62 nM | 26 nM |  |
